# Assay results: ChEMBL document CHEMBL2407070, “Bioactive compounds from the roots of Strophioblachia fimbricalyx” (J Nat Prod, 2013)
# How the values were obtained:
# [1] = tested on: MCF7; assay: cells; details: Homo sapiens
# Description: Cytotoxicity against human MCF7 cells by SRB assay
# [2] = tested on: NCI-H187; assay: Cytotoxicity against human NCI-H187 cells by SRB assay; format: functional, cell-based
# [3] = tested on: KB; assay: Cytotoxicity against human KB cells by SRB assay; format: functional, cell-based
# [4] = tested on: Plasmodium falciparum; assay: Antiplasmodial activity against Plasmodium falciparum K1 after 42 hrs by microdilution method; format: functional, organism-based; details: K1, 42 h
# [5] = tested on: Vero; assay: Cytotoxicity against african green monkey Vero cells by SRB assay; format: functional, cell-based; details: Chlorocebus sabaeus
# [6] = tested on: NCI-H187; assay: Cytotoxicity against human NCI-H187 cells; format: functional, cell-based
Structure (SMILES),IC50 [1] [µM],IC50 [4] [µM],IC50 [2] [µM],IC50 [3] [µM],IC50 [5] [µM],IC50 [6] [µM]
COc1cc2c3c(cc(O)c2cc1C)C(C)(C)C(=O)[C@@]1(OC)Oc2c(cc4c(cc(OC)c5cc(C)c(OC)cc54)c2C)O[C@H]31,> 10,> 10,> 10,> 10,–,–
COc1cc2c3c(cc(OC)c2cc1C)C(C)(O)OC3=O (stereo not given),> 10,> 10,> 10,> 10,–,–
COC1=Cc2c(cc(OC3=C4C(=CC(=O)C4(C)C)c4cc(OC)c(C)cc4C3=O)c3cc(C)c(OC)cc23)C(C)(C)C1=O,> 10,2.9,–,> 10,> 10,8.3
COC1=C2C(=CC(=O)C(O)=C2C)c2cc(OC)c(C)cc2C1=O,> 10,0.0193,> 10,> 10,> 10,–
C[C@H]1[C@@H](O)O[C@@H]2O[C@@]3(C)CC[C@H]4[C@H](C)CC[C@@H]1[C@@]24OO3 [ARTENIMOL],–,0.0025,–,–,–,–
COc1cccc2c1C(=O)c1c(O)c3c(c(O)c1C2=O)C[C@@](O)(C(=O)CO)C[C@@H]3O[C@H]1C[C@H](N)[C@H](O)[C@H](C)O1 [DOXORUBICIN],–,–,0.14,0.56,–,–
Cc1c2ccncc2c(C)c2c1[nH]c1ccccc12 [ELLIPTECINE],–,–,1.16,1.19,1.19,–

# Further lines, with some results ahead:
IC50 [1] [µM],IC50 [4] [µM],Structure (SMILES),IC50 [2] [µM],IC50 [3] [µM],IC50 [5] [µM],IC50 [6] [µM]
> 10,> 10,COc1cc2c3c(cc(O)c2cc1C)C(C)(C)C(=O)[C@]1(OC)Oc2c(cc4c(cc(OC)c5cc(C)c(OC)cc54)c2C)O[C@H]31,> 10,> 10,–,–
> 10,3.9,COc1cc2c3c(cc(O)c2cc1C)C(C)(C)C(=O)OC3=O,5.7,> 10,> 10,–
–,0.031,"O[C@@H](c1cc(C(F)(F)F)nc2c(C(F)(F)F)cccc12)[C@H]1CCCCN1 (relative stereo) [(S,R)-MEFLOQUINE]",–,–,–,–
5.19,–,CC/C(=C(\c1ccccc1)c1ccc(OCCN(C)C)cc1)c1ccccc1 [TAMOXIFEN],–,–,–,–
